≈ marks a conversion by molar mass, not a printed value. Read-outs that look alike come from different tables or passages of the source.

Our source for the EC50, Kd and solubility values is patent publication US11198713B2, “Agents modulating beta-catenin functions and methods thereof” (FOG PHARMACEUTICALS, INC., priority 2017, dated 2021).

For data set [1], the target named is T1, full-length beta-catenin (Axin site) (Homo sapiens, UniProt P35222).
T1 construct: 15 nM full-length beta-catenin, 20 nM FITC labeled peptide in buffer
T1 sequence (P35222 1-781): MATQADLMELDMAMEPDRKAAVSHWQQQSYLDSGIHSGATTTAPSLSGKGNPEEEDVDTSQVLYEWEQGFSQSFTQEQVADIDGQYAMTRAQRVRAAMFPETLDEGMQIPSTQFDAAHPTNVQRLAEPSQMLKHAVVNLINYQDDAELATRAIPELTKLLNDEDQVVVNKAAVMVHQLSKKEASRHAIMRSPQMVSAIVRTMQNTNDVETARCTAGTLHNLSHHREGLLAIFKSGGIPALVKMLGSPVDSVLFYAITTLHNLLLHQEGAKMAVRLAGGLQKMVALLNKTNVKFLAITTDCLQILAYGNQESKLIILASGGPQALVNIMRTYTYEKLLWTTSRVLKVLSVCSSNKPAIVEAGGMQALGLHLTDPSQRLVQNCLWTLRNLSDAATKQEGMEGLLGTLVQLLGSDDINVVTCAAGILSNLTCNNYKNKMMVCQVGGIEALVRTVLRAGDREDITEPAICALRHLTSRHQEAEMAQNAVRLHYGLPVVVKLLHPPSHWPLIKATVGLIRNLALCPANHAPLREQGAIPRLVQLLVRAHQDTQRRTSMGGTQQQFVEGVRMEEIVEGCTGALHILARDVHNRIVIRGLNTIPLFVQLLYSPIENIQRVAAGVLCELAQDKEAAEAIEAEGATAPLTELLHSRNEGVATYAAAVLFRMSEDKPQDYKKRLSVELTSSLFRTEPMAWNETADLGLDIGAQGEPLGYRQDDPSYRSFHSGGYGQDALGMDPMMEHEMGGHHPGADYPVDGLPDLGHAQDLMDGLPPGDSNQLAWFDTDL
Put plainly: Competition fluorescence polarization assay (Axin site probe). The data set is classed as binding. An outline of the steps: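 Competition FP: 15 nM full-length β-catenin pre-incubated 5 min with 20 nM FITC-labelled stapled Axin-site peptide, then titrated peptide added (3-fold series from 5 μM) for 15 min in the dark. Buffer 50 mM Tris pH 8.0, 250 mM NaCl, 2% glycerol, 0.5 mM EDTA; duplicate reads.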
(In fluorescence polarisation assays a small probe gives low polarisation when free and higher when bound to something large.)

Data set [2] deals with T2, biotinylated beta-catenin (Homo sapiens, UniProt P35222).
T2 sequence (P35222 1-781): T1 sequence (P35222 1-781)
Briefly: Surface Plasmon Resonance (Biacore). Format: binding. On the procedure:
Additionally or alternatively, binding to beta-catenin may be measured by Surface Plasmon Resonance. In an exemplary assay, approximately 6 nmol dried peptide diluted in buffer (50 mM Tris pH 8.0, 300 mM NaCl, 2% glycerol, 0.5 mM TCEP, 0.5 mM EDTA, 0.005% Tween-20, 1 mg/mL CM Dextran, 0.02% w/v sodium azide) was assayed on a Biacore X100 using the Biacore Biotin CAPture Kit (GE Healthcare) and biotinylated beta-catenin. Results were analyzed using the Biacore X100 Evaluation Software. […] FPO217c (Isomer 2) bound to the armadillo domain of β-catenin with a Kd of 2 nM.
(In general: SPR reads the build-up and loss of mass on a sensor chip optically.)

Data set [3] in a line: Solubility in DPBS (A280 of supernatant). The data set is classed as physicochemical. The conditions noted are these: DPBS. In a few lines: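 Dried peptide reconstituted in DPBS in triplicate, vortexed, sonicated and centrifuged. Supernatant A280 measured; concentration calculated using the tryptophan extinction coefficient.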
The mark [4] stands for this setting: competition fluorescence polarization, Table 2, read-out: in vitro FP EC50.
Where [5] appears, read: competition with FITC labeled Axin-site probe, 15 nM full-length beta-catenin, read-out: FP EC50.
The mark [6] stands for this setting: Biacore, biotinylated beta-catenin, read-out: Kd.

For `CC[C@H](C)[C@@H]1NC(=O)C2(NC(=O)[C@H](CCC(N)=O)NC(=O)[C@@H]3CCCN3C(C)=O)CN(C2)C(=O)OCC=CCCCC[C@](C)(C(=O)N[C@@H](Cc2c[nH]cn2)C(=O)N[C@H](C(=O)N[C@@H](CCCNC(=N)N)C(=O)N[C@@H](CCCNC(=N)N)C(=O)N[C@H](C(=O)N[C@@H](Cc2c[nH]c3ccccc23)C(=O)N[C@@H](CCCNC(=N)N)C(N)=O)C(C)C)C(C)C)NC(=O)[C@H](CC(=O)O)NC(=O)[C@H](CC(C)C)NC1=O` (single isomer, unassigned) [FP0725c, Ac-P-Q-MA-I-L-D-R6-H-V-R-R-V-W-R-NH2], in data set [1] (setting [4]), the EC50 (as a rule, the concentration at which the effect is half-maximal) was less than 100 nM. The Kd (as a rule, the constant that tells how readily two partners part at equilibrium) in data set [2] (Table 2, read-out: Kd by SPR) is 22 nM.

As to `CC[C@H](C)[C@@H]1NC(=O)[C@@](C)(NC(=O)[C@H](CCC(N)=O)NC(=O)[C@@H]2CCCN2C(C)=O)CCCCCC=CCN2CC(C(=O)N[C@@H](Cc3c[nH]cn3)C(=O)N[C@H](C(=O)N[C@@H](CCCNC(=N)N)C(=O)N[C@@H](CCCNC(=N)N)C(=O)N[C@H](C(=O)N[C@@H](Cc3c[nH]c4ccccc34)C(=O)N[C@@H](CCCNC(=N)N)C(N)=O)C(C)C)C(C)C)(C2)NC(=O)[C@H](CC(=O)O)NC(=O)[C@H](CC(C)C)NC1=O` (single isomer, unassigned) [FP0738a, Ac-P-Q-S7-I-L-D-MA-H-V-R-R-V-W-R-NH2], the EC50 in data set [1] (setting [4]) was 100 to 500 nM. For the same compound, in data set [2] (Table 2, read-out: Kd by SPR), the Kd amounted to 43 nM.

For the compound `CC[C@H](C)[C@@H]1NC(=O)[C@@]2(NC(=O)[C@H](CCC(N)=O)NC(=O)[C@@H]3CCCN3C(C)=O)CCN(CC=CCCCC[C@](C)(C(=O)N[C@@H](Cc3c[nH]cn3)C(=O)N[C@H](C(=O)N[C@@H](CCCNC(=N)N)C(=O)N[C@@H](CCCNC(=N)N)C(=O)N[C@H](C(=O)N[C@@H](Cc3c[nH]c4ccccc34)C(=O)N[C@@H](CCCNC(=N)N)C(N)=O)C(C)C)C(C)C)NC(=O)[C@H](CC(=O)O)NC(=O)[C@H](CC(C)C)NC1=O)C2` (single isomer, unassigned) [FP0745a, Ac-P-Q-MC-I-L-D-R6-H-V-R-R-V-W-R-NH2], the EC50 in data set [1] (setting [4]) was 100 to 500 nM. Besides, in data set [2] (Table 2, read-out: Kd by SPR), the Kd stood at 34 nM.

In the case of `CC[C@H](C)[C@@H]1NC(=O)[C@](C)(NC(=O)[C@H](CCC(N)=O)NC(=O)[C@@H]2CCCN2C(C)=O)CCC=CCOC(=O)N2CC[C@](C(=O)N[C@@H](Cc3c[nH]cn3)C(=O)N[C@H](C(=O)N[C@@H](CCCNC(=N)N)C(=O)N[C@@H](CCCNC(=N)N)C(=O)N[C@H](C(=O)N[C@@H](Cc3c[nH]c4ccccc34)C(=O)N[C@@H](CCCNC(=N)N)C(N)=O)C(C)C)C(C)C)(C2)NC(=O)[C@H](CC(=O)O)NC(=O)[C@H](CC(C)C)NC1=O` (single isomer, unassigned) [FP0765c, Ac-P-Q-R4-I-L-D-MC-H-V-R-R-V-W-R-NH2], the EC50 in data set [1] (setting [4]) was less than 100 nM. Further, in data set [2] (Table 2, read-out: Kd by SPR), the Kd worked out at 13 nM.

On to `CC[C@H](C)[C@@H]1NC(=O)[C@](C)(NC(=O)[C@H](CCC(N)=O)NC(=O)[C@@H]2CCCN2C(C)=O)CCCC=CCOC(=O)N2CC[C@](C(=O)N[C@@H](Cc3c[nH]cn3)C(=O)N[C@H](C(=O)N[C@@H](CCCNC(=N)N)C(=O)N[C@@H](CCCNC(=N)N)C(=O)N[C@H](C(=O)N[C@@H](Cc3c[nH]c4ccccc34)C(=O)N[C@@H](CCCNC(=N)N)C(N)=O)C(C)C)C(C)C)(C2)NC(=O)[C@H](CC(=O)O)NC(=O)[C@H](CC(C)C)NC1=O` (single isomer, unassigned) [FP0766c, Ac-P-Q-R5-I-L-D-MC-H-V-R-R-V-W-R-NH2], for which the EC50 in data set [1] (setting [4]) was less than 100 nM. Moreover, the Kd in data set [2] (Table 2, read-out: Kd by SPR) worked out at 7 nM.

Turning to `CC[C@H](C)[C@@H]1NC(=O)[C@@](C)(NC(=O)[C@H](CCC(N)=O)NC(=O)[C@@H]2CCCN2C(C)=O)CCCCCC=CCN2CC(C(=O)N[C@@H](Cc3c[nH]cn3)C(=O)N[C@H](C(=O)N[C@@H](CCCNC(=N)N)C(=O)N[C@@H](CCCNC(=N)N)C(=O)N[C@H](C(=O)N[C@@H](Cc3c[nH]c4ccccc34)C(=O)N[C@@H](CCCNC(=N)N)C(N)=O)C(C)C)C(C)C)(C2)NC(=O)[C@H](CC(=O)O)NC(=O)[C@H](CC(C)C)NC1=O` (single isomer, unassigned) [FP-0738a], in data set [1] (setting [5]), the concentration giving a half-maximal response (EC50) worked out at 200 nM. In data set [2] (setting [6]), the dissociation constant Kd is roughly 43 nM.

For the compound `CC[C@H](C)[C@@H]1NC(=O)[C@](C)(NC(=O)[C@H](CCC(N)=O)NC(=O)[C@@H]2CCCN2C(C)=O)CCCC=CCOC(=O)N2CC[C@](C(=O)N[C@@H](Cc3c[nH]cn3)C(=O)N[C@H](C(=O)N[C@@H](CCCNC(=N)N)C(=O)N[C@@H](CCCNC(=N)N)C(=O)N[C@H](C(=O)N[C@@H](Cc3c[nH]c4ccccc34)C(=O)N[C@@H](CCCNC(=N)N)C(N)=O)C(C)C)C(C)C)(C2)NC(=O)[C@H](CC(=O)O)NC(=O)[C@H](CC(C)C)NC1=O` (single isomer, unassigned) [FP-0766c, Ac-P-Q-R5-I-L-D-PR-H-V-R-R-V-W-R-NH2], the Kd in data set [2] (setting [6]) is roughly 7 nM.

`CC[C@H](C)[C@@H]1NC(=O)[C@@](C)(NC(=O)[C@H](CCC(N)=O)NC(=O)[C@@H]2CCCN2C(C)=O)CCCC=CCCC[C@@](C)(C(=O)N[C@@H](Cc2c[nH]cn2)C(=O)N[C@H](C(=O)N[C@@H](CCCNC(=N)N)C(=O)N[C@@H](CCCNC(=N)N)C(=O)N[C@H](C(=O)N[C@@H](Cc2c[nH]c3ccccc23)C(=O)N[C@@H](CCCNC(=N)N)C(N)=O)C(C)C)C(C)C)NC(=O)[C@H](CC(=O)O)NC(=O)[C@H](CC(C)C)NC1=O` (single isomer, unassigned) [FP-0787c]: the Kd in data set [2] (setting [6]) is roughly 14 nM.

In the case of `CC[C@H](C)[C@@H]1NC(=O)[C@](C)(NC(=O)[C@H](C)NC(=O)[C@@H]2CCCN2C(C)=O)CCCCCCC=CCOC(=O)N2CC[C@@](C(=O)N[C@@H](CCCNC(=N)N)C(=O)N[C@H](C(=O)N[C@@H](Cc3c[nH]c4ccccc34)C(N)=O)C(C)C)(C2)NC(=O)[C@H](C(C)C)NC(=O)[C@H](Cc2c[nH]cn2)NC(=O)[C@H](C)NC(=O)[C@H](CC(=O)O)NC(=O)[C@H](CC(C)C)NC1=O` [FP0025c, Ac-P-A-R8-I-L-D-A-H-V-MB-R-V-W-NH2], the 50% effective concentration (EC50) in data set [1] (setting [4]) and in data set [1] (setting [5]) was less than 100 nM in each case. For the same compound, in data set [2] (setting [6]), the Kd came to 15 nM.

`CC[C@H](C)[C@@H]1NC(=O)[C@H](Cc2c[nH]cn2)NC(=O)[C@H](C)NC(=O)[C@H](CC(=O)O)NC(=O)[C@H](CC(C)C)NC(=O)[C@H]([C@@H](C)CC)NC(=O)[C@](C)(NC(=O)[C@H](C)NC(C)=O)CCCCCCC=CCOC(=O)N(C)C[C@@](C)(C(=O)N[C@@H](CCCNC(=N)N)C(=O)N[C@H](C(=O)N[C@@H](Cc2c[nH]c3ccccc23)C(N)=O)C(C)C)NC1=O` [FP0338c, Ac-A-R8-I-L-D-A-H-I-MD-R-V-W-NH2]: in data set [1] (setting [4]), the EC50 lay within 100 to 500 nM. In data set [2] (Table 2, read-out: Kd by SPR), the Kd is 3 nM.

On to `CC[C@H](C)[C@@H]1NC(=O)[C@H](Cc2c[nH]cn2)NC(=O)[C@H](C)NC(=O)[C@H](CC(=O)O)NC(=O)[C@H](CC(C)C)NC(=O)[C@H]([C@@H](C)CC)NC(=O)[C@](C)(NC(=O)[C@H](C)NC(C)=O)CCC=CCOC(=O)N(C)CCC[C@@](C)(C(=O)N[C@@H](CCCNC(=N)N)C(=O)N[C@H](C(=O)N[C@@H](Cc2c[nH]c3ccccc23)C(N)=O)C(C)C)NC1=O` [FP0509c, Ac-A-R4-I-L-D-A-H-I-MH-R-V-W-NH2], for which the EC50 in data set [1] (setting [4]) was less than 100 nM. Also, the solubility – broadly, the dissolved amount per volume that the medium holds – in data set [3] (Table 2, read-out: Solubility) came out at 32 µM (≈ 49.9 µg/mL); in data set [3] (Table 3 Part A, read-out: Solubility in DPBS), 42 µM (≈ 65.4 µg/mL). Further, the Kd in data set [2] (Table 2, read-out: Kd by SPR) is 3 nM; in data set [2] (Table 3 Part A, read-out: Binding Kd), 3 nM.

For `CC[C@H](C)[C@@H]1NC(=O)[C@@](C)(NC(=O)[C@H](CCC(N)=O)NC(=O)[C@@H]2CCCN2C(C)=O)CCCC=CCCC[C@@](C)(C(=O)N[C@@H](Cc2c[nH]cn2)C(=O)N[C@H](C(=O)N[C@@H](CCCNC(=N)N)C(=O)N[C@@H](CCCNC(=N)N)C(=O)N[C@H](C(=O)N[C@@H](Cc2c[nH]c3ccccc23)C(=O)N[C@@H](CCCNC(=N)N)C(N)=O)C(C)C)C(C)C)NC(=O)[C@H](CC(=O)O)NC(=O)[C@H](CC(C)C)NC1=O` [FP0787s, Ac-P-Q-S5-I-L-D-S5-H-V-R-R-V-W-R-NH2], the concentration for a half-maximal effect (EC50) in data set [1] (setting [4]) was 100 to 500 nM. In addition, the Kd in data set [2] (Table 2, read-out: Kd by SPR) is 14 nM.
